Laboratory results reported in patent US8114900B2, “Amorphous carvedilol dihydrogen phosphate” (Teva Pharmaceutical Industries Ltd., priority 2006, dated 2012).
Where two headings read alike, the source gives them in different places.

What was measured:
[1] = cited from earlier work
[2] = Solubility of solid forms at pH=7 and 25° C.; type: physicochemical
Experimental: The amorphous form (1:1) of the present invention has higher solubility with compared to Form I at pH=7 and 25° C.: […]

[3] = Stability upon heating under extreme heat conditions (oven); type: physicochemical; conditions: 80° C. for 30 min in oven
[4] = % crystallinity calculation using the WinXRD 2.0 program; type: physicochemical; conditions: from XRD
Description: 2.0 program (FIGS. 46, 48, 39, 40, 43, 53, 50, 41).

[5] = Particle size dimensions from microscope images; type: physicochemical
Description: It has the advantage of being able to reduce the particle size to a range of smaller dimensions (according to the requirements of the formulator who prepare the capsule or tablet), while when starting in advance with a smaller size of powder (Form I) limits this option. In addition, small particles, reduce flowability.

COc1ccccc1OCCNCC(O)COc1cccc2[nH]c3ccccc3c12 (racemic) [carvedilol, (±)-1-(Carbazol-4-yloxy)-3-[[2-(o-methoxyphenoxy)ethyl]amino]-2-propanol]
solubility ([1]; in alkaline media): < 1 µg/mL | solubility ([1]; increases with decreasing pH, upper value): up to 100 μg/mL

COc1ccccc1OCCNCC(O)COc1cccc2[nH]c3ccccc3c12.O=P(O)(O)O (centres unmarked) [Amorphous, carvedilol dihydrogen phosphate]
solubility [2]: 14.9 µg/mL

COc1ccccc1OCCNCC(O)COc1cccc2[nH]c3ccccc3c12.O=P(O)(O)O (centres unmarked) [Form F1, carvedilol dihydrogen phosphate]
stability upon heating (solid form) ([3]; listed as F1): stable upon heating | % crystallinity ([4]; listed as F1): about 86% | particle size dimensions ([5]; listed as F1): 50-150 μm

COc1ccccc1OCCNCC(O)COc1cccc2[nH]c3ccccc3c12.O=P(O)(O)O (centres unmarked) [Form F, carvedilol dihydrogen phosphate]
stability upon heating (solid form) ([3]; listed as F): stable upon heating | % crystallinity ([4]; listed as F): about 87% | particle size dimensions ([5]; listed as F): 50-200 μm

COc1ccccc1OCCNCC(O)COc1cccc2[nH]c3ccccc3c12.O=P(O)(O)O (centres unmarked) [Form I, carvedilol dihydrogen phosphate]
solubility ([2]; listed as I (′027)): 9.6 µg/mL | % crystallinity ([4]; listed as I): about 68% | particle size dimensions ([5]; listed as I): less than 20 μm

COc1ccccc1OCCNCC(O)COc1cccc2[nH]c3ccccc3c12.O=P(O)(O)O (centres unmarked) [Form IV, reference compound]
stability upon heating (solid form) [3]: transforms to amorphous form

COc1ccccc1OCCNCC(O)COc1cccc2[nH]c3ccccc3c12.O=P(O)(O)O (centres unmarked) [Form L1, carvedilol dihydrogen phosphate]
stability upon heating (solid form) ([3]; listed as L1): stable upon heating | % crystallinity ([4]; listed as L1): about 85%

COc1ccccc1OCCNCC(O)COc1cccc2[nH]c3ccccc3c12.O=P(O)(O)O (centres unmarked) [Form L, carvedilol dihydrogen phosphate]
stability upon heating (solid form) ([3]; listed as L): stable upon heating | % crystallinity ([4]; listed as L): about 88%

COc1ccccc1OCCNCC(O)COc1cccc2[nH]c3ccccc3c12.O=P(O)(O)O (centres unmarked) [Form N, carvedilol dihydrogen phosphate]
% crystallinity ([4]; listed as N): about 86% | particle size dimensions ([5]; listed as N): 200-400 μm

COc1ccccc1OCCNCC(O)COc1cccc2[nH]c3ccccc3c12.O=P(O)(O)O (centres unmarked) [Form P, carvedilol dihydrogen phosphate]
% crystallinity ([4]; listed as P): about 85%

COc1ccccc1OCCNCC(O)COc1cccc2[nH]c3ccccc3c12.O=P(O)(O)O (centres unmarked) [Form R, carvedilol dihydrogen phosphate]
stability upon heating (solid form) ([3]; listed as R): stable upon heating | % crystallinity ([4]; listed as R): about 86%

COc1ccccc1OCCNCC(O)COc1cccc2[nH]c3ccccc3c12.O=P(O)(O)O (centres unmarked) [Form Y, carvedilol dihydrogen phosphate]
particle size dimensions ([5]; listed as Y): 20-100 μm
